Each structure is given as a SMILES string. Where “and” joins values, the source holds several entries; their conditions need not be identical. Identical values can stand only once. Inconclusive results and toxic doses are left out.

The subject of the assay is BDF1 mice, P288 leukemia ip, survival T/C. Kind of assay: NCI In Vivo Anticancer Drug Screen. Data for tumor model P288 Lymphocytic Leukemia (intraperitoneal) in B6D2F1 (BDF1) mice. The following applies: endpoint: survival time, mean or median, higher = longer survival. The protocol:
The antitumor activity of compounds was measured in mice bearing transplantable tumors. Survival or tumor size were measured and the results are expressed as the measurement made in the treated group (T) divided by the measurement made in the vehicle treated control group (C). The tumor model used in this assay is P288 Lymphocytic Leukemia (intraperitoneal) in B6D2F1 (BDF1) mice

Setting [1] is: dose: 0.25 mg/kg/injection, schedule: Q01DX010 (ip), vehicle: saline.
Setting [2] is: dose: 25.0 mg/kg/injection, schedule: Q01DX010 (ip), vehicle: saline.
Where [3] appears, read: dose: 50.0 mg/kg/injection, schedule: Q01DX010 (ip), vehicle: saline.
[4] abbreviates: dose: 250.0 mg/kg/injection, schedule: Q01DX010 (ip), vehicle: saline.
Setting [5] is: dose: 500.0 mg/kg/injection, schedule: Q01DX010 (ip), vehicle: saline.
Where [6] appears, read: dose: 25.0 mg/kg/injection, schedule: Q01DX Z (ip), vehicle: carboxymethylcellulose (CMC).
The mark [7] stands for this setting: dose: 0.5 mg/kg/injection, schedule: Q01DX010 (ip), vehicle: saline.
[8] abbreviates: dose: 1.0 mg/kg/injection, schedule: Q01DX010 (ip), vehicle: saline.
Setting [9] is: dose: 16.0 mg/kg/injection, schedule: Q01DX010 (ip), vehicle: saline.
Where [10] appears, read: dose: 32.0 mg/kg/injection, schedule: Q01DX010 (ip), vehicle: saline.
[11] abbreviates: dose: 64.0 mg/kg/injection, schedule: Q01DX010 (ip), vehicle: saline.
Setting [12] is: dose: 128.0 mg/kg/injection, schedule: Q01DX010 (ip), vehicle: saline.
The mark [13] stands for this setting: dose: 16.0 mg/kg/injection, schedule: Q01DX Z (ip), vehicle: carboxymethylcellulose (CMC).
The mark [14] stands for this setting: dose: 62.5 mg/kg/injection, schedule: Q01DX Z (ip), vehicle: carboxymethylcellulose (CMC).
Setting [15] is: dose: 125.0 mg/kg/injection, schedule: Q01DX Z (ip), vehicle: carboxymethylcellulose (CMC).

For the compound `N#C[C@@H]1C2C=CC(CC2)[C@H]1C#N`, the T/C is, setting by setting: under setting [1], 89 % of control; (dose: 63.0 micrograms/kg/injection, schedule: Q01DX010 (ip), vehicle: saline) 105 % of control; (dose: 125.0 micrograms/kg/injection, schedule: Q01DX010 (ip), vehicle: saline) 105 % of control; (dose: 500.0 micrograms/kg/injection, schedule: Q01DX010 (ip), vehicle: saline) 111 % of control.

Turning to `CCCNc1ncnc2[nH]ncc12`, the T/C is, setting by setting: (dose: 0.31 mg/kg/injection, schedule: Q01DX Z (ip), vehicle: water) 94 % of control; (dose: 0.63 mg/kg/injection, schedule: Q01DX Z (ip), vehicle: water) 90 % of control; (dose: 2.5 mg/kg/injection, schedule: Q01DX Z (ip), vehicle: water) 108 % of control and 114 % of control; (dose: 5.0 mg/kg/injection, schedule: Q01DX Z (ip), vehicle: water) 112 % of control; (dose: 10.0 mg/kg/injection, schedule: Q01DX Z (ip), vehicle: water) 106 % of control and 91 % of control; (dose: 20.0 mg/kg/injection, schedule: Q01DX Z (ip), vehicle: water) 108 % of control. The T/C (dose: 40.0 mg/kg/injection, schedule: Q01DX Z (ip), vehicle: water) is 103 % of control.

Consider `Cc1cc2nc3c(=O)[nH]c(=O)nc-3n(CC(O)C(O)C(O)C(O)CO)c2cc1C` (configuration not stated), for which the T/C is 100 % of control under setting [2]; 118 % of control under setting [3]; 106 % of control and 94 % of control (dose: 100.0 mg/kg/injection, schedule: Q01DX010 (ip), vehicle: saline); 106 % of control and 94 % of control (dose: 200.0 mg/kg/injection, schedule: Q01DX010 (ip), vehicle: saline); 112 % of control (dose: 400.0 mg/kg/injection, schedule: Q01DX010 (ip), vehicle: saline).

As to `CCOC(N)=O`, the T/C runs as follows: (dose: 125.0 mg/kg/injection, schedule: Q01DX010 (ip), vehicle: saline) 110 % of control and 94 % of control; under setting [4], 94 % of control; under setting [5], 94 % of control.

In the case of `C[n+]1c2ccccc2nc2c(N)cc(N)cc21`, the T/C runs as follows: (dose: 3.1 mg/kg/injection, schedule: Q01DX Z (ip), vehicle: carboxymethylcellulose (CMC)) 114 % of control; (dose: 6.25 mg/kg/injection, schedule: Q01DX Z (ip), vehicle: carboxymethylcellulose (CMC)) 97 % of control; (dose: 6.3 mg/kg/injection, schedule: Q01DX Z (ip), vehicle: carboxymethylcellulose (CMC)) 115 % of control; (dose: 12.5 mg/kg/injection, schedule: Q01DX Z (ip), vehicle: carboxymethylcellulose (CMC)) 104 % of control and 105 % of control; under setting [6], 117 % of control and 96 % of control.

`NC(=O)N(CCCl)N=O`: the T/C under setting [7] is 205 % of control; the T/C under setting [8] is 222 % of control; the T/C (dose: 1.0 mg/kg/injection, schedule: Q01DX Z (ip), vehicle: carboxymethylcellulose (CMC)) is 105 % of control; the T/C (dose: 2.0 mg/kg/injection, schedule: Q01DX010 (ip), vehicle: saline) is 166 % of control; the T/C (dose: 2.0 mg/kg/injection, schedule: Q01DX Z (ip), vehicle: carboxymethylcellulose (CMC)) is 98 % of control; the T/C (dose: 4.0 mg/kg/injection, schedule: Q01DX Z (ip), vehicle: carboxymethylcellulose (CMC)) is 104 % of control. The T/C (dose: 8.0 mg/kg/injection, schedule: Q01DX Z (ip), vehicle: carboxymethylcellulose (CMC)) was 152 % of control and 210 % of control.

Regarding `Nc1nc(SCc2ccccc2)c2[nH]cnc2n1`, the T/C was 108 % of control (dose: 2.5 mg/kg/injection, schedule: Q01DX Z (ip), vehicle: carboxymethylcellulose (CMC)); 113 % of control (dose: 4.95 mg/kg/injection, schedule: Q01DX Z (ip), vehicle: carboxymethylcellulose (CMC)); 94 % of control (dose: 8.0 mg/kg/injection, schedule: Q01DX010 (ip), vehicle: saline); 91 % of control (dose: 9.9 mg/kg/injection, schedule: Q01DX Z (ip), vehicle: carboxymethylcellulose (CMC)); 88 % of control under setting [9]; 88 % of control (dose: 18.75 mg/kg/injection, schedule: Q01DX Z (ip), vehicle: carboxymethylcellulose (CMC)). The T/C is 113 % of control (dose: 18.8 mg/kg/injection, schedule: Q01DX Z (ip), vehicle: carboxymethylcellulose (CMC)); 100 % of control under setting [10]; 122 % of control under setting [11]; 110 % of control under setting [12].

On to `O=NN(CCCl)C(=O)NCCCl`, for which the T/C by setting is: (dose: 1.0 mg/kg/injection, schedule: Q01DX Z (ip), vehicle: saline) 121 % of control; (dose: 2.0 mg/kg/injection, schedule: Q01DX Z (ip), vehicle: saline) 117 % of control; (dose: 6.25 mg/kg/injection, schedule: Q01DX010 (ip), vehicle: saline) 193 % of control and 428 % of control; (dose: 12.5 mg/kg/injection, schedule: Q01DX010 (ip), vehicle: saline) 150 % of control and 192 % of control; (dose: 16.0 mg/kg/injection, schedule: Q01DX Z (ip), vehicle: saline) 203 % of control; under setting [2], 106 % of control and 121 % of control. Also, the T/C is, setting by setting: (dose: 32.0 mg/kg/injection, schedule: Q01DX Z (ip), vehicle: saline) 263 % of control; under setting [3], 87 % of control; (dose: 64.0 mg/kg/injection, schedule: Q01DX Z (ip), vehicle: saline) 101 % of control.

Regarding `OCC1OC(n2cnc3c(=S)nc[nH]c32)C(O)C1O` (configuration not stated), the T/C runs as follows: under setting [13], 94 % of control; (dose: 31.0 mg/kg/injection, schedule: Q01DX Z (ip), vehicle: carboxymethylcellulose (CMC)) 94 % of control; under setting [14], 109 % of control; under setting [15], 97 % of control; (dose: 250.0 mg/kg/injection, schedule: Q01DX Z (ip), vehicle: carboxymethylcellulose (CMC)) 92 % of control.

Take `O=CCC(O)C(O)C(O)CO` (configuration not stated): the T/C by setting is: under setting [13], 120 % of control; under setting [14], 113 % of control; under setting [15], 120 % of control; under setting [4], 90 % of control and 100 % of control; under setting [5], 100 % of control.

`CCCCn1cnc2c(=S)nc[nH]c21`: the T/C was 88 % of control and 94 % of control under setting [9]; 108 % of control under setting [6]; 88 % of control and 100 % of control under setting [10]; 102 % of control (dose: 50.0 mg/kg/injection, schedule: Q01DX Z (ip), vehicle: carboxymethylcellulose (CMC)); 88 % of control and 100 % of control under setting [11]; 106 % of control and 113 % of control (dose: 100.0 mg/kg/injection, schedule: Q01DX Z (ip), vehicle: carboxymethylcellulose (CMC)). For the same compound, the T/C reads like this: under setting [12], 100 % of control; (dose: 200.0 mg/kg/injection, schedule: Q01DX Z (ip), vehicle: carboxymethylcellulose (CMC)) 100 % of control.

On to `C1CN1c1nc(N2CC2)nc(N2CC2)n1`, for which the T/C (dose: 0.13 mg/kg/injection, schedule: Q01DX010 (ip), vehicle: saline) was 88 % of control; the T/C under setting [1] was 105 % of control and 88 % of control; the T/C under setting [7] was 111 % of control and 95 % of control; the T/C under setting [8] is 94 % of control.

In the case of `N[C@@H](Cc1ccc(N(CCCl)CCCl)cc1)C(=O)O`, the T/C was 151 % of control (dose: 0.62 mg/kg/injection, schedule: Q01DX Z (ip), vehicle: saline); 181 % of control and 196 % of control (dose: 1.25 mg/kg/injection, schedule: Q01DX Z (ip), vehicle: saline); 172 % of control (dose: 2.5 mg/kg/injection, schedule: Q01DX Z (ip), vehicle: saline); 207 % of control (dose: 5.0 mg/kg/injection, schedule: Q01DX Z (ip), vehicle: saline); 108 % of control and 113 % of control (dose: 10.0 mg/kg/injection, schedule: Q01DX Z (ip), vehicle: saline).

The values are drawn from PubChem BioAssay AID216 (DTP/NCI, 2004).
